Source: PubChem BioAssay (NCI)
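Five compound concentrations were applied to cells in 96-well plates for 48 hours; endpoints were derived by simple linear interpolation of the resulting dose-response curve. Abbreviation: GI50, concentration required for 50% inhibition of growth. TGI: total growth inhibition.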

Assays:
Assay in all cases: NCI tumour cell line growth inhibition, 48 h
[1] = system: KM12 colon
[2] = system: HOP-92 NSCLC
[3] = system: NCI-H522 lung
[4] = system: CCRF-CEM leukemia
[5] = system: 786-0 renal
[6] = system: DU-145 prostate
[7] = system: SNB-75 CNS
[8] = system: SR leukemia
[9] = system: EKVX NSCLC
[10] = system: SK-OV-3 ovarian
[11] = system: TK-10 renal
[12] = system: SNB-19 CNS
[13] = system: OVCAR-4 ovarian
[14] = system: PC-3 prostate
[15] = system: HL-60(TB) leukemia
[16] = system: NCI/ADR-RES ovarian
[17] = system: SF-539 CNS
[18] = system: HCT-116 colon
[19] = system: MOLT-4 leukemia
[20] = system: T-47D breast
[21] = system: SF-268 CNS
[22] = system: ACHN renal
[23] = system: IGROV1 ovarian
[24] = system: HCC-2998 colon
[25] = system: SF-295 CNS
[26] = system: MDA-MB-435
[27] = system: MCF7 breast
[28] = system: BT-549 breast
[29] = system: UACC-257 melanoma
[30] = system: SW-620 colon
[31] = system: NCI-H460 lung
[32] = system: A498 renal
[33] = system: A549 NSCLC
[34] = system: COLO 205 colon
[35] = system: HT29 colon
[36] = system: MDA-MB-231 breast
[37] = system: OVCAR-8 ovarian
[38] = system: OVCAR-5 ovarian
[39] = system: SK-MEL-5 melanoma
[40] = system: M14 melanoma
[41] = system: NCI-H226 lung
[42] = system: LOX IMVI melanoma
[43] = system: HOP-62 NSCLC
[44] = system: K-562 leukemia
[45] = system: UO-31 renal
[46] = system: U251 CNS
[47] = system: UACC-62 melanoma
[48] = system: RPMI-8226 leukemia
[49] = system: SK-MEL-28 melanoma
[50] = system: CAKI-1 renal
[51] = system: SK-MEL-2 melanoma
[52] = system: OVCAR-3 ovarian
[53] = system: NCI-H23 lung
[54] = system: SN12C renal
[55] = system: MALME-3M melanoma
[56] = system: HCT-15 colon
[57] = system: HS 578T breast

In the case of `C/C(=C\c1csc(C)n1)[C@@H]1C[C@@H]2O[C@@H]2CCC[C@H](C)[C@H](O)[C@@H](C)C(=O)C(C)(C)[C@@H](O)CC(=O)O1`, the TGI [1] is reported as greater than 100000 nM, the TGI [2] is reported as 608 nM and the TGI [3] is reported as less than 0.1 nM. The TGI [4] was greater than 100000 nM, the TGI [5] was greater than 100000 nM and the TGI [6] was 4.64 nM. It also gave a TGI [7] of less than 0.1 nM, a TGI [8] of 6.09 nM and a TGI [9] of 525 nM. It also gave a TGI [10] of 398 nM, a TGI [11] greater than 100000 nM and a TGI [12] greater than 100000 nM. The GI50 [13] was 23000 nM, the TGI [13] was greater than 100000 nM and the TGI [14] was greater than 100000 nM. It also gave a TGI [15] greater than 100000 nM, a TGI [16] of 0.598 nM and a TGI [17] of less than 0.1 nM. It also gave a TGI [18] greater than 100000 nM, a TGI [19] greater than 100000 nM and a TGI [20] greater than 100000 nM. For the same compound, the TGI [21] was greater than 100000 nM, the TGI [22] was greater than 100000 nM and the TGI [23] was greater than 100000 nM. For the same compound, the TGI [24] was less than 0.1 nM, the TGI [25] was less than 0.1 nM and the TGI [26] was less than 0.1 nM. The TGI [27] was 349 nM, the TGI [28] was greater than 100000 nM and the TGI [29] was greater than 100000 nM. For the same compound, the TGI [30] was 18700 nM, the TGI [31] was greater than 100000 nM and the TGI [32] was 333 nM. It also gave a TGI [33] greater than 100000 nM, a TGI [34] of 80.4 nM and a TGI [35] of 0.586 nM.
`CC[C@H](C)[C@H](NC(=O)CN(C)C)C(=O)N(C)[C@H](C[C@@H](OC(C)=O)c1nc(C(=O)NC23CC(C(=O)OC)(C2)C3)cs1)C(C)C` gave a GI50 [1] of 478 nM, a TGI [1] greater than 25000 nM and a GI50 [36] of 287 nM. It also gave a TGI [36] greater than 12200 nM, a GI50 [2] greater than 25000 nM and a TGI [2] greater than 25000 nM. The GI50 [3] was 51.1 nM, the TGI [3] was greater than 7880 nM and the GI50 [4] was 93.2 nM. It also gave a TGI [4] greater than 25000 nM, a GI50 [37] of 460 nM and a TGI [37] greater than 25000 nM. For the same compound, the GI50 [5] was 741 nM, the TGI [5] was greater than 25000 nM and the GI50 [6] was 183 nM. The TGI [6] was greater than 25000 nM, the GI50 [7] was 88.3 nM and the TGI [7] was greater than 25000 nM. The GI50 [9] was 1530 nM, the TGI [9] was greater than 25000 nM and the GI50 [38] was greater than 6630 nM. For the same compound, the TGI [38] was greater than 25000 nM, the GI50 [39] was 572 nM and the TGI [39] was 4000 nM. The GI50 [10] was 1640 nM, the TGI [10] was greater than 25000 nM and the GI50 [11] was greater than 25000 nM. It also gave a TGI [11] greater than 25000 nM, a GI50 [40] of 99.5 nM and a TGI [40] greater than 5780 nM. The GI50 [12] was 852 nM, the TGI [12] was greater than 25000 nM and the GI50 [13] was 4640 nM. It also gave a TGI [13] greater than 25000 nM, a GI50 [14] of 804 nM and a TGI [14] greater than 25000 nM. For the same compound, the GI50 [41] was greater than 25000 nM, the TGI [41] was greater than 25000 nM and the GI50 [42] was 276 nM. It also gave a TGI [42] greater than 25000 nM, a GI50 [15] of 45.5 nM and a TGI [15] of 181 nM. For the same compound, the GI50 [43] was 2970 nM, the TGI [43] was greater than 25000 nM and the GI50 [16] was greater than 21400 nM. It also gave a TGI [16] greater than 25000 nM, a GI50 [44] of 73.3 nM and a TGI [44] greater than 25000 nM. For the same compound, the GI50 [17] was 307 nM, the TGI [17] was 1560 nM and the GI50 [18] was 381 nM. For the same compound, the TGI [18] was greater than 25000 nM, the GI50 [45] was 12600 nM and the TGI [45] was greater than 25000 nM. The GI50 [46] was 417 nM, the TGI [46] was greater than 25000 nM and the GI50 [47] was 237 nM. The TGI [47] was greater than 25000 nM, the GI50 [48] was 84.5 nM and the TGI [48] was greater than 25000 nM. The GI50 [19] was 119 nM, the TGI [19] was greater than 25000 nM and the GI50 [20] was greater than 25000 nM. The TGI [20] was greater than 25000 nM, the GI50 [49] was 3060 nM and the TGI [49] was greater than 25000 nM. The GI50 [50] was 12300 nM, the TGI [50] was greater than 25000 nM and the GI50 [51] was 1510 nM. For the same compound, the TGI [51] was greater than 25000 nM, the GI50 [21] was 831 nM and the TGI [21] was greater than 25000 nM. For the same compound, the GI50 [22] was 2280 nM, the TGI [22] was greater than 25000 nM and the GI50 [52] was 80.4 nM. For the same compound, the TGI [52] was greater than 7190 nM, the GI50 [23] was 412 nM and the TGI [23] was greater than 25000 nM. For the same compound, the GI50 [24] was 490 nM, the TGI [24] was greater than 25000 nM and the GI50 [25] was 647 nM. For the same compound, the TGI [25] was greater than 25000 nM, the GI50 [26] was 46.1 nM and the TGI [26] was 298 nM. For the same compound, the GI50 [53] was 1220 nM, the TGI [53] was greater than 25000 nM and the GI50 [27] was 110 nM. The TGI [27] was greater than 25000 nM, the GI50 [54] was 268 nM and the TGI [54] was greater than 25000 nM. The GI50 [28] was 151 nM, the TGI [28] was greater than 13900 nM and the GI50 [29] was greater than 25000 nM. The TGI [29] was greater than 25000 nM, the GI50 [55] was greater than 6280 nM and the TGI [55] was greater than 25000 nM. It also gave a GI50 [30] of 163 nM, a TGI [30] greater than 25000 nM and a GI50 [31] of 408 nM. The TGI [31] was greater than 25000 nM, the GI50 [56] was 1010 nM and the TGI [56] was greater than 25000 nM. It also gave a GI50 [32] of 1470 nM, a TGI [32] greater than 25000 nM and a GI50 [57] of 125 nM. The TGI [57] was greater than 25000 nM, the GI50 [33] was 1620 nM and the TGI [33] was greater than 25000 nM. For the same compound, the GI50 [34] was 144 nM, the TGI [34] was 5590 nM and the GI50 [35] was 102 nM. The TGI [35] was greater than 25000 nM.
